In ChEMBL document CHEMBL5131418, “Streptooctatins A and B, fusicoccane-type diterpenoids with autophagic activity from Streptomyces sp. KCB17JA11” (Bioorg Med Chem Lett, 2022):
Activity calls are given as the source filed them. No cut-off for these calls is given here.

Experiments:
HeLa [1] = assay: Induction of autophagy in human HeLa cells assessed as increase in LC3-II protein expression level at 10 to 50 uM uM incubated for 24 hrs by western blot analysis; assay type: functional, cell-based; details: dose 10-50 µM
HeLa [2] = assay: Cytotoxicity against human HeLa cells assessed as reduction in cell viability up to 100 uM; assay type: toxicity, cell-based
HeLa [3] = assay: Induction of autophagy in human HeLa cells stably expressing EGFP-LC3 assessed as increase in EGFP-LC3 puncta formation at 25 uM incubated for 24 hrs by fluorescence microscopic analysis; assay type: functional, cell-based
HeLa [4] = assay: Cytotoxicity against human HeLa cells assessed as reduction in cell number at 100 uM; assay type: toxicity, cell-based

Row | Compound | Activity (HeLa [1]) | Activity (HeLa [2]) | Activity (HeLa [3]) | Activity (HeLa [4])
1 | CCCC(=O)[C@@H](C)[C@H]1O[C@@](O)([C@H](C)C(=O)OC[C@@H](CO)[C@H]2CC[C@]3(C)C[C@@H]4[C@H](CO)C[C@@H](O)[C@H]4[C@@](C)(O)C/C=C/23)[C@H](C)C[C@H]1C | Active | Non-Toxic | Active | Toxic
2 | CCC(=O)[C@@H](C)[C@H]1O[C@@](O)([C@H](C)C(=O)OC[C@@H](CO)[C@H]2CC[C@]3(C)C[C@@H]4[C@H](CO)C[C@@H](O)[C@H]4[C@@](C)(O)C/C=C/23)[C@H](C)C[C@H]1C | Active | Non-Toxic | Active | Toxic
3 | CC(C)[C@H]1CC[C@]2(C)C[C@@H]3[C@H](CO)C[C@@H](O)[C@H]3[C@@](C)(O)C/C=C/12 | – | Non-Toxic | – | –
